Measured values as given in US20250326777A1, “COMPOUNDS, COMPOSITIONS AND METHODS THEREOF” (HEPAITECH (BEIJING) BIOPHARMA TECHNOLOGY CO., LTD., priority 2022, published 2025).

Biological target: T1, human MRGPRX4 (Homo sapiens, UniProt Q96LA9)
T1 construct: expressed in transfected cells
Test: MRGPRX4 antagonist calcium (FLIPR, Fluo-8) assay in HEK293T cells stably expressing human MRGPRX4, agonist 0.2 μM deoxycholic acid-3-phosphoric acid
Format: cell-based
Conditions: HEK293T cells stably expressing human MRGPRX4; antagonist mode; top conc. 30 μM, ten 3-fold serial dilutions; C may also mean <40% inhibition at 2 μM; read-out: Antagonist activity (IC50 class)
Experimental: HEK293T cells stably expressing human MRGPRX4 were cultured in DMEM medium supplements with 10% FBS, 100 U/mL penicillin-streptomycin, 20 mM HEPES and 1 μg/mL puromycin at 37° C. with 5% (v/v) CO2. One day before test, the cells were detached using TrypLE™ Express and counted using cell counter. In a 384-well plate cells were seeded at a density of 20,000 cells/well in 20 uL/well planting medium (DMEM medium supplements with 5% FBS, 100 U/mL penicillin-streptomycin and 20 mM HEPES), and incubated overnight at 37° C. with 5% (v/v) CO2. On the day of experiments, the dye solution, prepared following the manufacture's instruction of the Screen Quest™ Fluo-8 No Wash Calcium Assay Kit, was added to each well (20 μL/well) of the cell plate. The cell plate was incubated at 25° C. for 1 hour. Test compounds in different doses were transferred to the cell plate by FLIPR and the plate was kept in the dark at 25° C. for 30 minutes. The agonist solution, 0.2 μM of deoxycholic acid-3-phosphoric acid in assay buffer, was added to each well of the plate. The plate was read for 160 sec with 1 sec interval to obtain data of antagonist mode in FLIPR. For various compounds, IC50 values were calculated by fitting % inhibition against log of compound concentrations (top conc. 30 μM, ten 3-fold serial dilutions) with Hill equation using XLfit. […] Those skilled in the art appreciate that IC50 of various compounds can be assessed in accordance with the present disclosure.

T1 sequence (Q96LA9 whole entry): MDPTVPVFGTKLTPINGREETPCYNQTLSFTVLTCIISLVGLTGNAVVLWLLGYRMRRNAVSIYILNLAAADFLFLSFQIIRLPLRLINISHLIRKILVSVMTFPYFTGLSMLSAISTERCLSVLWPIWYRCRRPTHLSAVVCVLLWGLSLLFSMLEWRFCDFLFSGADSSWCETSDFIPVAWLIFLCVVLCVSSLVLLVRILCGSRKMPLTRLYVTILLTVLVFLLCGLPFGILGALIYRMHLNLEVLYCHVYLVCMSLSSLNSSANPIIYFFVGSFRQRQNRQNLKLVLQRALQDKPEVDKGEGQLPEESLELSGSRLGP

**Q.** How did the IC50 turn out when `CCCn1c(-c2ccc(C(=O)O)cc2F)cc2ccc(C(F)(F)F)cc21` [Example 18] was run?
**A.** Its IC50 is < 1 µM.

**Q.** `Cc1cc(-c2nnn[nH]2)c(F)c(C2Cc3cc(C(F)(F)F)ccc3O2)c1` (centres unmarked) [Compound 99] was tested. Which IC50 did it give?
**A.** The IC50 was < 1 µM.

**Q.** Which IC50 does the source give for `N#Cc1ccc2c(c1)CC(c1cccc(C(=O)O)c1F)O2` (centres unmarked) [Example 80] here?
**A.** Its IC50 is > 10 µM.

**Q.** With `Cn1c(-c2ccc(C(=O)O)cc2)c(F)c2ccc(C(F)(F)F)cc21` [Example 37] as the compound, how does the IC50 read?
**A.** The IC50 was > 10 µM.

**Q.** How did the IC50 turn out when `Cn1cc(-c2cc(C(=O)O)cc(C3Cc4cc(C(F)(F)F)ccc4O3)c2)cn1` (centres unmarked) [Example 69] was run?
**A.** The IC50 was > 10 µM.

**Q.** Which IC50 does the source give for `O=C(O)c1cc(F)cc(C2Cc3cc(C(F)(F)F)ccc3O2)c1` (centres unmarked) [Example 57] here?
**A.** The IC50 was 1 to 10 µM.

**Q.** For `O=C(O)c1cc(C2CCCC2)cc(C2Cc3cc(C(F)(F)F)ccc3O2)c1` (centres unmarked) [Example 65], which IC50 is on record?
**A.** Its IC50 is > 10 µM.

**Q.** For `O=C(O)c1ccc(-c2nc3c(C(F)(F)F)c(F)ccc3o2)cc1F` [Example 44], which IC50 is on record?
**A.** Its IC50 is > 10 µM.

**Q.** For `Cn1c(-c2cccc(C(=O)O)c2)cc2ccc(C(F)(F)F)cc21` [Example 4], which IC50 is on record?
**A.** Its IC50 is > 10 µM.

**Q.** Which IC50 does the source give for `O=C(O)c1cccc(C2Cc3cc(C(F)(F)F)ccc3O2)c1` (centres unmarked) [Example 60] here?
**A.** The IC50 was 1 to 10 µM.

**Q.** With `O=C(O)c1ccc(-c2cc3ccc(C(F)(F)F)cc3n2-c2ccccc2)cc1` [Example 34] as the compound, how does the IC50 read?
**A.** The IC50 was 1 to 10 µM.

**Q.** `O=C(O)c1cccc(C2Cc3cc(Cl)ccc3O2)c1F` (centres unmarked) [Example 63] was tested. Which IC50 did it give?
**A.** The IC50 was 1 to 10 µM.

**Q.** Which IC50 does the source give for `O=C(O)c1c(F)ccc(C2Cc3cc(C(F)(F)F)ccc3O2)c1F` (centres unmarked) [Example 85] here?
**A.** Its IC50 is > 10 µM.

**Q.** With `CN1c2cc(C(F)(F)F)ccc2CC1c1ccc(C(=O)O)cc1` (centres unmarked) [Example 40] as the compound, how does the IC50 read?
**A.** Its IC50 is > 10 µM.

**Q.** For `O=C(O)c1cc(F)cc(-c2nc3cc(C(F)(F)F)c(Cl)cc3o2)c1` [Example 46], which IC50 is on record?
**A.** The IC50 was > 10 µM.

**Q.** `Cn1c(-c2ccc(C(=O)O)cc2)cc2c(Cl)cc(C(F)(F)F)cc21` [Example 13] was tested. Which IC50 did it give?
**A.** Its IC50 is 1 to 10 µM.

**Q.** Which IC50 does the source give for `O=c1[nH]c(-c2cccc([C@@H]3Cc4cc(C(F)(F)F)ccc4O3)c2F)no1` [Compound 105] here?
**A.** The IC50 was < 1 µM.

**Q.** With `Cn1c(-c2ccc(C(=O)O)cc2F)cc2ccc(C(F)(F)F)cc21` [Example 14] as the compound, how does the IC50 read?
**A.** Its IC50 is 1 to 10 µM.

**Q.** Which IC50 does the source give for `O=C(O)c1cccc(-c2nc3cc(C(F)(F)F)cc(Cl)c3o2)c1` [Example 43] here?
**A.** The IC50 was > 10 µM.

**Q.** For `O=C(O)c1ccc(-c2cc3ccc(C(F)(F)F)cc3n2C2CCCC2)c(F)c1` [Example 30], which IC50 is on record?
**A.** The IC50 was < 1 µM.

**Q.** `Cn1c(-c2ccc(C(=O)O)cc2)cc2ccc(C(F)(F)F)cc21` [Example 1] was tested. Which IC50 did it give?
**A.** The IC50 was 1 to 10 µM.

**Q.** Which IC50 does the source give for `CC(C)n1c(-c2ccc(C(=O)O)cc2)cc2cc(Cl)c(Cl)cc21` [Example 11] here?
**A.** The IC50 was > 10 µM.

**Q.** `O=C(O)c1cccc(C2Cc3cc(F)ccc3O2)c1F` (centres unmarked) [Example 79] was tested. Which IC50 did it give?
**A.** Its IC50 is > 10 µM.

**Q.** With `O=C(O)c1cccc(-c2cc3cc(C(F)(F)F)ccc3o2)c1` [Example 50] as the compound, how does the IC50 read?
**A.** Its IC50 is > 10 µM.

**Q.** With `O=C(O)c1ccc(C2Cc3ccccc3O2)cc1` (centres unmarked) [Example 59] as the compound, how does the IC50 read?
**A.** The IC50 was > 10 µM.

**Q.** For `O=C(O)c1cccc(C2Cc3c(cccc3C(F)(F)F)O2)c1F` (centres unmarked) [Example 77], which IC50 is on record?
**A.** Its IC50 is > 10 µM.

**Q.** With `Cn1c(-c2ccc(C(=O)O)cc2)cc2ccc(C(=O)O)cc21` [Example 9] as the compound, how does the IC50 read?
**A.** Its IC50 is > 10 µM.

**Q.** Which IC50 does the source give for `CCCn1c(-c2ccc(C(=O)O)c(F)c2)cc2ccc(C(F)(F)F)cc21` [Example 19] here?
**A.** Its IC50 is 1 to 10 µM.

**Q.** `CCOP(=O)(OCC)c1ccc(-c2cc3ccc(C(F)(F)F)cc3n2C)cc1` [Example 70, diethyl(4-(1-methyl-6-(trifluoromethyl)-1H-indol-2-yl)phenyl)phosphonate] was tested. Which IC50 did it give?
**A.** The IC50 was > 10 µM.

**Q.** For `CCCn1c(-c2ccc(C(=O)O)cc2)cc2ccc(OC(F)(F)F)cc21` [Example 21], which IC50 is on record?
**A.** Its IC50 is > 10 µM.

**Q.** How did the IC50 turn out when `O=C(O)c1ccc(-c2cc3ccc(C(F)(F)F)cc3n2-c2ccccc2)c(F)c1` [Example 36] was run?
**A.** Its IC50 is > 10 µM.

**Q.** For `O=C(O)c1ccc(-c2nc3cc(C(F)(F)F)cc(Cl)c3o2)cc1` [Example 47], which IC50 is on record?
**A.** Its IC50 is > 10 µM.

**Q.** With `O=C(O)c1ccc(-c2cc3ccc(C(F)(F)F)cc3n2C2CCCC2)cc1F` [Example 31] as the compound, how does the IC50 read?
**A.** Its IC50 is 1 to 10 µM.

**Q.** Which IC50 does the source give for `Fc1c(-c2nnn[nH]2)cccc1[C@@H]1Cc2cc(C(F)(F)F)ccc2O1` [Compound 88] here?
**A.** Its IC50 is < 1 µM.

Same assay, conditions: HEK-293T; single concentration 0.5 μM; HEK293T cells stably expressing human MRGPRX4

**Q.** With `FC(F)(F)c1ccc2c(c1)CC(c1cccc(-c3nnn[nH]3)c1)O2` (centres unmarked) [Compound 93] as the compound, how does the inhibition at 0.5 µM read?
**A.** The inhibition at 0.5 µM was 24%.
